Data: US10016494B2, “Antigenic epitopes from EBV gp350/220 and uses thereof” (VALORISATION-HSJ, LIMITED PARTNERSHIP, priority 2014, dated 2018)

How the values were obtained:
[1] = tested on: P3HR1 virus super-infection of Raji cells; assay: EBV antibody neutralization assay; assay type: cell-based, Epstein-Barr virus; conditions: FIG. 2B, log10 dilutions of 0.01 to 10 μg/ml
Experimental: Antibody neutralization potency was measured as the inhibition of EBV early antigen (EA) expression upon super-infection of Raji cells by P3HR1 virus (33). Mixtures of concentrated virus (2×10^4 EA-inducing units) and serial dilutions of purified antibody were incubated in a final volume of 0.1 ml for 60 min at 37° C. prior to the addition of 5×10^4 Raji cells. The Raji cell-virus mixture was further incubated for 60 min at 37° C. followed by resuspension in RPMI medium and a 2-day incubation at 37° C. The number of Raji cells expressing EA after cell culture was measured by immunofluorescence, and relative antibody neutralization potency per μg of antibody was calculated.

[2] = tested on: anti-gp350 monoclonal antibody 72A1; assay: Peptide ELISA: 72A1 antibody binding to plate-coated gp350 mimetic peptides; design: species or system murine; conditions: for binding to the 72A1 antibody: FIG. 4A, peptide coated on ELISA plate; for Notes: reactivity with the 72A1 monoclonal antibody: Table III
Experimental: (§1) Gp350 mimetic peptides that were synthesized and HPLC purified to >70% (Elim Biopharmaceuticals®, Hayward, Calif.) were suspended at 2.5 μg/mL in 0.1M carbonate buffer pH 9 prior to their overnight incubation at 4° C. as 100 μL aliquots in a 96 well ELISA plate (Ultident®, St. Laurent, QC). Peptide-coated plates were washed 4× with PBS:0.05% Tween-20®, blocked with 1% BSA:PBS and incubated for a minimum of 2 h at room temperature (RT) with anti-gp350 monoclonal antibody 72A1, or the isotype-matched, background-control anti-LMP1 monoclonal antibody S-12 and 1:100 dilutions of commercial intravenous gamma globulin (IVIG) (18). Bound monoclonal antibodies were detected using biotin-conjugated goat anti-mouse IgG, biotin-conjugated anti-human IgG and horseradish peroxidase (HRP)-conjugated streptavidin (Jackson Immunoresearch Laboratories®, West Grove, Pa.) in conjunction with 3,3′,5,5′-Tetramethylbenzidine substrate (TMB solution, Bioshop®, Burlington ON). HRP enzyme activity was stopped with an equal volume of 1N HCl and wells read at 450nm.

[3] = tested on: 72A1 antibody recognition of gp350 protein; assay: Competition ELISA: 72A1 pre-incubated with gp350 mimetic peptides in solution, then tested for binding to gp350; design: species or system Epstein-Barr virus; conditions: for inhibition of 72A1 antibody recognition of gp350 protein: FIG. 4B, peptide allowed to interact with 72A1 in solution
Experimental: Whole cell ELISA was performed using CEM cells or CEM cells expressing gp350. The cells were washed with PBS, suspended at 1×10^6 cells/mL in PBS and 40 μL aliquots were added to each ELISA plate well. Plates were vacuum-dried prior to cell fixation with cold methanol. Plates were washed with PBS and wells blocked in 1% BSA:PBS prior to a 1 h exposure to monoclonal antibody or monoclonal antibody that was pre-incubated for 2 or more hours with gp350 mimetic peptides. Bound monoclonal antibodies were detected using biotin-conjugated goat anti-mouse IgG, HRP-conjugated streptavidin as outlined above.
Although peptide 3 contained the amino acid sequence EID shown by mutation to result in a loss of 72A1 binding (31), the lack of noted binding by peptide 3 may have been due to inappropriate adsorption to the ELISA plate that interfered with antibody binding. To avoid potential ELISA plate interference, gp350 mimetic peptides were allowed to interact with 72A1 antibody in solution, and later the antibody was tested for its ability to bind to native gp350 protein.

[4] = Peptide immunization of mice: anti-peptide IgG by ELISA; assay type: in vivo, Balb/C female mice; conditions: FIG. 7A, KLH-coupled peptide 100 μg i.p., after third immunization, ± SEM
Experimental: (§2) Balb/C female mice were immunized intraperitoneally with 100 μg of keyhole limpet hemocyanin (KLH)-coupled with gp350 mimetic peptide (Sigma Conjugation Kit) emulsified in Sigma Adjuvant System (Sigma-Aldrich). Mice were re-injected every 21 days and blood was drawn 14 days after the second injection. Following the third immunization, IgG levels of peptide reactivity were measured by ELISA.
(§3) Balb/C female mice were immunized intraperitoneally with gp350 mimetic peptides as described in Example 1 above. Following the third immunization, IgG levels of peptide reactivity were measured by ELISA. All mice generated antibodies to their respective peptides with average antibody concentrations (pg/ml) of 97±46 SEM, 122±67 and 981±577 for p1, p2 and p3, respectively (FIG. 7A).

[5] = tested on: 72A1 recognition of gp350; assay: Sera from peptide-immunized mice blocking biotinylated-72A1 binding to gp350; assay type: in vivo, Balb/C female mice; conditions: FIG. 7C, pooled serum from peptide immunized mice, 1:50 dilution
Experimental: Histogram of biotinylated-72A1 binding to gp350 protein that was pre-exposed to mouse preimmune (preimm) serum, pooled serum from peptide immunized mice (1:50 dilution), or 1 μg/ml 72A1, or 0.5 mg/ml BSA. Average OD±SEM was derived from three separate experiments. P-values≤0.05 are indicated (*).
as §2, §3

native gp350 = assay: Peptide immunization of mice: serum recognition of native gp350; assay type: in vivo, Balb/C female mice; conditions: FIG. 7B, same mice sera, ± SEM
Experimental: as §2, §3

[6] = tested on: human IgG (IVIG, human EBV immune serum); assay: Peptide ELISA with commercial intravenous gamma globulin (IVIG); assay type: binding; conditions: FIG. 5, thirty-nine lots of IVIG, ± SD
Experimental: as §1
Although p2 was recognized by the murine monoclonal antibody 72A1 and was capable of generating antibodies that recognized the gp350 neutralizing epitope in mice, it is unknown whether EBV-positive human sera would recognize this gp350 mimetic peptide. The determination of human IgG reactivity against each of the three peptides could serve as a surrogate indicator of whether the gp350 mimetic peptides would be immunogenic or capable of generating an anti-gp350 antibody response. […] This was followed by p1 at levels of 1.83±0.07 pg/ml and by p3 with antibody levels of 1.7±0.06 pg/ml.

[7] = FIG. 4C, altered domain compared to peptide 2

Row | Substance | average anti-peptide antibody concentration [4] [pg/mL] | binding to the 72A1 antibody [2] | average antibody concentration recognizing native gp350 (native gp350) [pg/mL] | anti-peptide antibody levels in IVIG [6] [pg/mL] | also measured
1 | 72A1 antibody: well-known mouse monoclonal antibody (IgG1 isotype), EBV gp350 neutralizing, commercially available |  |  |  |  | block of P3HR1 EBV super-infection of Raji cells [1]: block P3HR1 virus superinfection of Raji cells
2 | AAAAAAAAQNPVYLIPETVPYIKWDN (SEQ ID NO: 33) (Epstein-Barr virus) [Peptide 2.2, Ala substitution of domain 1 of peptide 2] |  |  |  |  | binding activity compared to parental peptide 2 ([2]; FIG. 6B, peptide 2 = 100%): 56%; reduction in recognition of p2 by 72A1 antibody [3, 7]: 50%
3 | DDRTLQLAAAPVAALIPAVVPAIAWAA (SEQ ID NO: 34) (Epstein-Barr virus) [Peptide 2.3, Domain 1-LA-altered Domain 2] |  |  |  |  | binding to the 72A1 monoclonal antibody ([2]; FIGS. 6A and 6B, alanine substitutions): did not bind; recognition of p2 by 72A1 antibody after domain alteration [3, 7]: abolished recognition
4 | DDRTLQLAQNPVYLIPETVPYIKWDN (SEQ ID NO: 4) (Epstein-Barr virus) [Peptide 2] | 122 ± 67 | strongly bound | 1.3 ± 0.9 | 2.16 ± 0.08 | inhibition of 72A1 antibody recognition of gp350 protein [3]: 78%; inhibition of 72A1 recognition of gp350 by antisera [5]: 38%
5 | EEKSAEAAQQPADAAPDSAPDAKMDQ (SEQ ID NO: 32) (Epstein-Barr virus) [Peptide 2.1, 72a1 positive mimeotope] |  |  |  |  | Notes: reactivity with the 72A1 monoclonal antibody [2]: 72a1 positive
6 | GSAKPGNGSYFASVKTEMLGNEID (SEQ ID NO: 27) (Epstein-Barr virus) [Peptide 3, gp350 mimetic peptide encompassing the central area of the purported gp350 neutralizing domain] | 981 ± 577 | did not bind | 4.1 ± 2.4 | 1.7 ± 0.06 | inhibition of 72A1 antibody recognition of gp350 protein [3]: 8%; inhibition of 72A1 recognition of gp350 by antisera [5]: 23%
7 | SKAPESTTTSPTLNTTGFADY (SEQ ID NO: 31) (Epstein-Barr virus) [Peptide 1, reference compound] | 97 ± 46 | did not bind | 0.015 ± 0.01 | 1.83 ± 0.07 | ELISA activity with 72A1 ([2]; FIG. 6A, value subtracted from the peptide 2 series before plotting): 0.355 OD; Notes: reactivity with the 72A1 monoclonal antibody [2]: 72A1 non-reactive
